Experimental data as given in patent US20240059644A1, “COMPOUND, COMPOSITION, BIOTISSUE EMBRITTLEMENT AGENT, BIOTISSUE SURFACE DETACHMENT METHOD, AND BIOTISSUE DETACHMENT KIT” (SANYO CHEMICAL INDUSTRIES, LTD., priority 2020, published 2024).

Assays:
[1] = system: large intestine tissue pieces (crypts); test: Evaluation 1 of in vitro crypt isolation effect; type: cell-based, mice (C57B6/j); conditions: 37° C. 30 minutes
Procedure: Eight-week-old male mice (C57B6/j, CLEA Japan, Inc.) were sacrificed by cervical dislocation and the whole large intestine was removed. […] The intestinal tract was longitudinally opened and 5-mm-long tissue pieces were obtained. The tissue pieces were placed in 1.5-mL microtubes each containing 1 mL of Hank's balanced salt solution. The tissue pieces were washed by stirring for 10 minutes with a microtube mixer (MT-400 available from TOMY SEIKO CO., LTD.). After washing, the tissue pieces were transferred to other 1.5-mL microtubes each containing 1 mL of Hank's balanced salt solution, and washed in the same manner.
The tissue pieces were transferred to 1.5-mL microtubes containing the compositions (C-1) to (C-6) and the comparative compositions (C′-1) to (C′-7) each in an amount of 1 mL and were allowed to stand at 37° C. for 30 minutes.
After 30 minutes, the tissue pieces were transferred to other 1.5-mL microtubes each containing 1 mL of Hank's balanced salt solution and stirred for five minutes with a microtube mixer. Thereby, the crypts were isolated. […] Thereby, the tissue was fixed. A 50-μL portion was sampled therefrom and dropped onto dishes, and the number of crypts contained was counted using an optical microscope. The number of crypts was counted three times for each concentration, and the average was calculated therefrom.
The presence of one or more crypts was considered that a sufficient embrittlement effect was obtained.

[2] = system: minced distal large intestine tissue (crypts); test: Evaluation 2 of in vitro crypt isolation effect; type: cell-based, mice (C57B6/j); conditions: 37° C. 30 minutes
Procedure: Thereby, the crypts were isolated. […] Thereby, the tissue was fixed. A 50-μL portion was sampled therefrom and dropped onto dishes, and the number of crypts contained was counted using an optical microscope. The number of crypts was counted three times for each concentration, and the average was calculated therefrom.

proximal large intestine = test: Evaluation 1 of in vivo epithelial detachment effect; design: species or system mice (C57B6/j); conditions: 8 mL at 50° C. over two minutes, once
Excerpt: A longitudinal 1-cm abdominal midline incision was made, and the proximal large intestine was exposed to the outside of the abdominal cavity. A small incision was made in the proximal large intestine 1 cm anal side from the cecum, and a catheter was inserted toward the anal. […] A small incision was made 1 cm anal side from the catheter insertion site, and another catheter was inserted toward the oral side. These two catheters allowed perfusion of the 1-cm-long intestinal tract. The catheters were each fixed with a thread from the outside of the intestinal tract, together with the vasculature, to cut off the blood flow in the 1-cm-long intestinal tract sandwiched between the two catheters.
Immediately after the injection of the biological tissue embrittling agents, 25 mL of Dulbecco's phosphate-buffered saline (without Ca and Mg) was continuously injected three times each over 45 seconds, whereby the crypts were detached. Then, 20 mL of Dulbecco's Modified Eagle's Medium, high glucose, (Sigma-Aldrich Cat #D5796) was injected to antagonize the biological tissue embrittling agents. […] The large intestine was longitudinally cut and flat opened, and was imaged with a fluorescent stereo microscope (Leica M165 FC) and an all-in-one fluorescence microscope (KEYENCE BZ-X800). The images were analyzed with ImageJ and the detached area was measured. […]

beagle dogs = conditions: Ca-EDTA compared with Ca-DTPA; cited from earlier work

SMILES	Number of crypts ([1]; 2 mM, compositions (C-1), (C′-2))	Number of crypts ([1]; 8 mM, compositions (C-2), (C′-3))	Number of crypts ([1]; 16 mM, compositions (C-3), (C′-4))	Number of crypts ([1]; 32 mM, compositions (C-4), (C′-5))	Number of crypts ([1]; 64 mM, compositions (C-5), (C′-6))	Number of crypts ([1]; 128 mM, compositions (C-6), (C′-7))	Number of crypts ([2]; 3 mM, compositions (C-7) to (C-10), (C′-8))	Number of crypts ([2]; 10 mM, compositions (C-11) to (C-14), (C′-9))	Evaluation 1 of epithelial detachment effect Detached area (proximal large intestine; 230 mM, agents (M-1), (M′-2))	Evaluation 1 of epithelial detachment effect Detached area (proximal large intestine; 500 mM, agent (M′-3))	safety of intravenous administration for one month (beagle dogs)
O=C([O-])CN(CCN(CC(=O)O)CC(=O)O)CC(=O)[O-].[Na+].[Na+] [(Z′-1), disodium ethylenediaminetetraacetate]	48.67	156.33	140	129.33	115.33	95.67	108.89	169.56	30.2 mm^2	66.0 mm^2	–
O=C([O-])CN(CCN(CC(=O)[O-])CC(=O)[O-])CCN(CC(=O)[O-])CC(=O)[O-].[Ca+2].[Na+].[Na+].[Na+] [Ca-DTPA]	–	–	–	–	–	–	–	–	–	–	no significant difference in safety
O=C(O)CN(CCN(CC(=O)O)CC(=O)O)CC(=O)O.[Ca] [Ca-EDTA]	–	–	–	–	–	–	–	–	–	–	no significant difference in safety
